The source made the active and inactive calls. No cut-off for these calls is given here.
Assays:
RT-4 [1] = experiment: Antiproliferative activity against human RT-4 cells expressing FGFR3-TACC3 at 3 uM measured after 72 hrs by WST assay; assay type: functional, cell-based
RT-4 [2] = experiment: Sniper activity at FGFR3-TACC3 in human RT4 cells assessed as decrease in FGFR3-TACC3 protein level at 3 uM after 6 hrs; assay type: cell-based
RT-4 [3] = experiment: Sniper activity at FGFR3-TACC3 in human RT4 cells assessed as decrease in FGFR3-TACC3 protein level at 3 uM after 6 hrs in presence of siRNA XIAP; assay type: cell-based
RT-4 [4] = experiment: Sniper activity at FGFR3-TACC3 in human RT4 cells assessed as decrease in FGFR3-TACC3 protein level at 30 uM after 6 hrs; assay type: cell-based

SMILES	Activity (RT-4 [1])	Activity (RT-4 [2])	Activity (RT-4 [3])	Activity (RT-4 [4])
CN[C@@H](C)C(=O)N[C@H](C(=O)N1CCC[C@H]1c1nc(C(=O)c2cccc(OCCOCCOCCNC(=O)c3ccc(-c4nc(CNc5nccc(NCC(C)C)n5)cs4)cc3)c2)cs1)C1CCCCC1	Active	Active	Active	
CN[C@@H](C)C(=O)N[C@H](C(=O)N1CCC[C@H]1c1nc(C(=O)c2cccc(OCCOCCOCCOCCNC(=O)c3ccc(-c4nc(CNc5nccc(NCC(C)C)n5)cs4)cc3)c2)cs1)C1CCCCC1		Active		
CN[C@@H](C)C(=O)N[C@H](C(=O)N1C[C@@H](Oc2cccc(OCCOCCOCCOCCNC(=O)c3ccc(-c4nc(CNc5nccc(NCC(C)C)n5)cs4)cc3)c2)C[C@H]1C(=O)N[C@@H]1CCCc2ccccc21)C1CCCCC1		Active		
CC(C)CNc1ccnc(NCc2csc(-c3ccc(C(=O)NCCOCCOCCOCCNC(=O)[C@H](CC(C)C)NC(=O)[C@@H](O)[C@H](N)Cc4ccccc4)cc3)n2)n1				Active
CN[C@@H](C)C(=O)N[C@H](C(=O)N1C[C@@H](Oc2cccc(OCCOCCOCCOCCOCCNC(=O)c3ccc(-c4nc(CNc5nccc(NCC(C)C)n5)cs4)cc3)c2)CC1C(=O)N[C@@H]1CCCc2ccccc21)C1CCCCC1 (some centres not stated)		Active		

Reference: ChEMBL document CHEMBL5143577, “Development of a degrader against oncogenic fusion protein FGFR3-TACC3” (Bioorg Med Chem Lett, 2022)
